Like-named read-outs stand apart in the source and are kept apart here. One block for each molecule: values may come before it.
Key:
FR1 = FR1 (Homo sapiens, UniProt P15328); details: read-out: affinity; cited from earlier work
FR2 = FR2 (Homo sapiens, UniProt P14207); details: read-out: affinity; cited from earlier work
KIFC1 = KIFC1 (Homo sapiens, UniProt Q9BW19); details: ATP-competitive, MT-noncompetitive; cited from earlier work
[1] = tested on: BT-549 breast cancer cells; details: cells with amplified centrosomes; cited from earlier work
[2] = Stability in simulated gastric fluid (SGF); format: in vitro ADME; details: 10 μM, SGF pH 1.2, over 1 h
Experimental: (§1) Samples (100 μl) were drawn at 0, 15, 30 and 60 min from SGF reaction-vials and at 0, 30, 60 and 120 min from SIF reaction-vials, quenched with acetonitrile, vortex-mixed, and centrifuged before supernatant analysis by LC-MS/MS analysis. […] For PK studies, a sparse sampling design with 3 mice per time point was used to collect blood samples at 5, 10, 15, 30 min and 1, 2, 3, 4, 5 and 6 h in K2EDTA-coated tubes. The pharmacokinetic parameters (AUClast, Cmax, CL and Vss) were calculated using non-compartmental analysis tool of Phoenix WinNonlin software (version 6.3).
(§2) Given the extreme pH and various digestive enzymes, the GI tract presents a harsh environment to any ingested xenobiotic. Thus, many potential drug candidates are degraded in the GI tract, explaining their decreased bioavailability or inability to reach the target at effective concentrations. Simulated gastric fluid (SGF; pH 1.2) and simulated intestinal fluid (SIF; pH 6.8) closely mimic the GI tract environment and are amenable in vitro systems to evaluate degradation of a compound in GI tract (US Pharmacopoia).
(§3) Simulated gastric fluid was prepared as per U.S. Pharmacopeia (USP) methods. Sodium chloride (2 g) and pepsin (3.2 g, from porcine stomach mucosa) were dissolved in 7.0 ml hydrochloric acid and Milli-Q water to make up the volume to 1000 ml and the pH was adjusted to 1.2. […]

[3] = Stability in simulated intestinal fluid (SIF); format: in vitro ADME; details: 10 μM, SIF pH 6.8, after 2 h
Experimental: as §1, §2, §3

[4] = Blood plasma concentration ratio assay; format: in vitro ADME, mice; details: whole blood; mouse blood, 37° C.; read-out: Blood to plasma ratio (BPR)
Experimental: Values and error bars shown in the figure represent mean and SE, respectively.
100 μl and 300 μl aliquots were collected at time points 0, 15, 30 and 60 min. 100 μl water was added to each of the 100 μl aliquots followed by vortexing, centrifugation at 8000 g for 10 min, and collection of the supernatants for bioanalysis. The 300 μL aliquots were centrifuged at 8000 g for 10 min to separate the plasma, followed by collection of the supernatants for bioanalysis.

[5] = Pharmacokinetic studies, single oral and intravenous dose; format: in vivo, BALB/c mice; details: male, BALB/c, mouse, plasma, analyte PhosE; for Cmax: read-out: Cmax/C0
Experimental: as §1
Nine animals per group were used for PK studies. A sparse sampling design was used to collect blood samples from animals at 5 min, 10 min, 15 min, 30 min, 1, 2, 3, 4, 5, and 6 h in K2EDTA coated tubes. Plasma was collected from blood by centrifugation of samples at 8000 g for 10 min. Plasma samples were stored below −60° C. until further analysis.
PK parameters were calculated from the concentration-time data using the non-compartmental analysis tool of Phoenix WinNolin® software (version 6.3, Pharsight, St Louis, Mo.). The area under the concentration time curve (AUClast) was calculated by the linear trapezoidal rule. Following oral administration, peak concentration (Cmax) and time for the peak concentration (Tmax) were the observed values. The clearance (CL) and volume of distribution (Vss) were estimated following IV dose administration. The elimination rate constant value (k) was obtained by linear regression of the log-linear terminal phase of the concentration-time profile using at least three declining concentrations in terminal phase with a correlation coefficient of >0.8. The terminal half-life value (T1/2) was calculated using the equation ln 2/k. Oral bioavailability was calculated by taking the ratio of dose normalized AUClast following oral administration to IV administration.

PC-3 cells [6] = test: MTT cell proliferation assay; format: cell-based, human; details: MTT, 48 h, pH 7.4
Experimental: (§4) Next, a clonogenic cell survival assay was performed to assess the reproductive capacity of cells upon drug removal.
(§5) After 48 h, drug containing medium was replaced by medium containing MTT (tetrazolium bromide) at a concentration of 0.5 mg/ml. The yellow tetrazolium salt is reduced to insoluble purple formazan by viable cells. After 4 h of incubation in dark, formazan crystals produced by viable cells were dissolved by 200 μl DMSO and the amount of formazan crystals formed was quantified by recording the absorbance at 570 nm using multi-well plate reader. […] After 10 days, colonies were fixed with 4% formaldehyde, stained with crystal violet and counted.

PC-3 cells [7] = test: Clonogenic cell survival (colony) assay; format: cell-based, human; details: 2 mg/ml, 48 h treatment, colonies after 10 days
Experimental: as §4, §5

PC-3 cells [8] = test: Intracellular levels of Etn and PhosE by LC-MS/MS; format: cell-based, human; details: 1 mg/ml, 48 h, pH 7.4
CYP1A2 = CYP1A2 (Homo sapiens, UniProt P05177); test: CYP inhibition in human liver microsomes
Chain of CYP1A2 (P05177 whole entry): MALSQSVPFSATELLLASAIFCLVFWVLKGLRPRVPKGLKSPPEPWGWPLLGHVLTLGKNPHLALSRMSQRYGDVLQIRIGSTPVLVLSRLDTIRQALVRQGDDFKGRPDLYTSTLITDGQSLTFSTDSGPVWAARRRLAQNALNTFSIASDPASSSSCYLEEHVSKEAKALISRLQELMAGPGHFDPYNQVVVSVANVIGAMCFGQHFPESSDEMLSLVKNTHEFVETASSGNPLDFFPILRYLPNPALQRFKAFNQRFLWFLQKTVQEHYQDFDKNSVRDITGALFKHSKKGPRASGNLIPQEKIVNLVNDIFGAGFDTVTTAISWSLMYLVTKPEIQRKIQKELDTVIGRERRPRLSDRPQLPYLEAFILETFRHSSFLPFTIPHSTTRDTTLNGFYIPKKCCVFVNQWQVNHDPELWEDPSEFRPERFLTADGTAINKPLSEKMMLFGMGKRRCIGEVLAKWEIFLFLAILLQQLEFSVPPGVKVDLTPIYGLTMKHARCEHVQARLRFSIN

CYP2A6 = CYP2A6 (Homo sapiens, UniProt P11509); test: CYP inhibition in human liver microsomes
CYP2B6 = CYP2B6 (Homo sapiens, UniProt P20813); test: CYP inhibition in human liver microsomes
Chain of CYP2B6 (P20813 whole entry): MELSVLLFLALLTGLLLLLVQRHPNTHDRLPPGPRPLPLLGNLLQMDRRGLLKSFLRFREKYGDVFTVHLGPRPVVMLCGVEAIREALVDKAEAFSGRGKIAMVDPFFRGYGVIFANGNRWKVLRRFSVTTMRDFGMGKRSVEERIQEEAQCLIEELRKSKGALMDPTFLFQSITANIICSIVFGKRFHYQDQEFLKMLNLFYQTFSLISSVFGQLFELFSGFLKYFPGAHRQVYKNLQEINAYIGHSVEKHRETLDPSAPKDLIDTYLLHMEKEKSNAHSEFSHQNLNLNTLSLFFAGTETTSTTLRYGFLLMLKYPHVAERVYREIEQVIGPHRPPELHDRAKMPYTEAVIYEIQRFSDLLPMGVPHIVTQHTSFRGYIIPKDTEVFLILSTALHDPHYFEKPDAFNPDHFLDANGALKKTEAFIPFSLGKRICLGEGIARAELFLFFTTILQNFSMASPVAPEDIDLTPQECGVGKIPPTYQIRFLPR

CYP2C8 = CYP2C8 (Homo sapiens, UniProt P10632); test: CYP inhibition in human liver microsomes
CYP2C9 = CYP2C9 (Homo sapiens, UniProt P11712); test: CYP inhibition in human liver microsomes
Chain of CYP2C9 (P11712 whole entry): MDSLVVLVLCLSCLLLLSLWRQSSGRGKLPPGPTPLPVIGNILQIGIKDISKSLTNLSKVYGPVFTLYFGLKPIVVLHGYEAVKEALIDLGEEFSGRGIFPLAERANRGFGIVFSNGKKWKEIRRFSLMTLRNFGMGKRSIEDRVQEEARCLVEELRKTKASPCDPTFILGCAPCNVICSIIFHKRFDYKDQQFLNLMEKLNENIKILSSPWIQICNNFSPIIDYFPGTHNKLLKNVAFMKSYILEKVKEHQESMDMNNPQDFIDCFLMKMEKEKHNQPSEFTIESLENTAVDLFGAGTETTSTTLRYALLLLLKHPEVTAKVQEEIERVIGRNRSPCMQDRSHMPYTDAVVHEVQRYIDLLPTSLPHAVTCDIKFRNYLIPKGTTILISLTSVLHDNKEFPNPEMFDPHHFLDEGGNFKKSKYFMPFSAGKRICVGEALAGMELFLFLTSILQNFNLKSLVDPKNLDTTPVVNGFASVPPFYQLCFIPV

CYP2C19 = CYP2C19 (Homo sapiens, UniProt P33261); test: CYP inhibition in human liver microsomes
CYP2D6 = CYP2D6 (Homo sapiens, UniProt P10635); test: CYP inhibition in human liver microsomes
Chain of CYP2D6 (P10635 whole entry): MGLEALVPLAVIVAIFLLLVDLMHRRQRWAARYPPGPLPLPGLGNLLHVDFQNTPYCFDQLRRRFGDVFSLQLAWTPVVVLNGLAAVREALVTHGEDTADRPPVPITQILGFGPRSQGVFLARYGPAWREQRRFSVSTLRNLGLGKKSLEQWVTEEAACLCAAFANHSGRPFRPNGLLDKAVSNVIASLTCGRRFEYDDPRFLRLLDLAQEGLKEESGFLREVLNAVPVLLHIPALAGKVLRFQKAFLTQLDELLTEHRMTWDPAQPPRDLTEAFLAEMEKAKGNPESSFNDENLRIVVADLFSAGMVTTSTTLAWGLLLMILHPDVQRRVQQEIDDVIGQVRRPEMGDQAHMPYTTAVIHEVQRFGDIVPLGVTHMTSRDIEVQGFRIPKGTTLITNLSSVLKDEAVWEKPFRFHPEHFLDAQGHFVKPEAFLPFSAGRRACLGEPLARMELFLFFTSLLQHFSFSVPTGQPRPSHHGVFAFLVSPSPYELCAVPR

CYP2E1 = CYP2E1 (Homo sapiens, UniProt P05181); test: CYP inhibition in human liver microsomes
CYP3A4 = CYP3A4 (Homo sapiens, UniProt P08684); test: CYP inhibition in human liver microsomes
Chain of CYP3A4 (P08684 whole entry): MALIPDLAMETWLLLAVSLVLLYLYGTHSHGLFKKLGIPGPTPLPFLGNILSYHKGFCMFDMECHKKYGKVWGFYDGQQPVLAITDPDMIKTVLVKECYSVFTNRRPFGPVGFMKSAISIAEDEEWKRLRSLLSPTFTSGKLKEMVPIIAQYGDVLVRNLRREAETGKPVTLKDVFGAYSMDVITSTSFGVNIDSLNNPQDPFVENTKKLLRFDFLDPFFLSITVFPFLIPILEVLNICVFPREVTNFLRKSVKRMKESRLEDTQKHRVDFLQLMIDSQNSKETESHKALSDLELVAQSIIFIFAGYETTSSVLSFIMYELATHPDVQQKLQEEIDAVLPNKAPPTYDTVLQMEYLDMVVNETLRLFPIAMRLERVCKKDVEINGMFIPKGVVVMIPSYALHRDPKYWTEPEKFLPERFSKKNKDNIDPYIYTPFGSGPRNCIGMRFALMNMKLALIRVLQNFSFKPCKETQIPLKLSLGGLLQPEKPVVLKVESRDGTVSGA

Chain of FR2 (P14207 17-230): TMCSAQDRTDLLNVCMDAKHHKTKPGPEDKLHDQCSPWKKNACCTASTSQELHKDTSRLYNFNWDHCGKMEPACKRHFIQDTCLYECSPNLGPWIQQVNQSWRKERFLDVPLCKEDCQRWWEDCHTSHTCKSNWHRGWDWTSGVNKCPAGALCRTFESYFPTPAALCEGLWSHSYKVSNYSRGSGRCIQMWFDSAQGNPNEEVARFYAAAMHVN
Chain of FR1 (P15328 25-234): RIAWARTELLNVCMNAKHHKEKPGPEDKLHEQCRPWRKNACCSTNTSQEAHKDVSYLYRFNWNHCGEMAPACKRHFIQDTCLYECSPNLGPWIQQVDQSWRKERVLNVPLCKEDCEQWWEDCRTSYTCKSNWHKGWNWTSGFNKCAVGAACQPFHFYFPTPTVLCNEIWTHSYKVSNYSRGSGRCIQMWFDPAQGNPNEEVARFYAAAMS
Chain of KIFC1 (Q9BW19 whole entry, species assumed): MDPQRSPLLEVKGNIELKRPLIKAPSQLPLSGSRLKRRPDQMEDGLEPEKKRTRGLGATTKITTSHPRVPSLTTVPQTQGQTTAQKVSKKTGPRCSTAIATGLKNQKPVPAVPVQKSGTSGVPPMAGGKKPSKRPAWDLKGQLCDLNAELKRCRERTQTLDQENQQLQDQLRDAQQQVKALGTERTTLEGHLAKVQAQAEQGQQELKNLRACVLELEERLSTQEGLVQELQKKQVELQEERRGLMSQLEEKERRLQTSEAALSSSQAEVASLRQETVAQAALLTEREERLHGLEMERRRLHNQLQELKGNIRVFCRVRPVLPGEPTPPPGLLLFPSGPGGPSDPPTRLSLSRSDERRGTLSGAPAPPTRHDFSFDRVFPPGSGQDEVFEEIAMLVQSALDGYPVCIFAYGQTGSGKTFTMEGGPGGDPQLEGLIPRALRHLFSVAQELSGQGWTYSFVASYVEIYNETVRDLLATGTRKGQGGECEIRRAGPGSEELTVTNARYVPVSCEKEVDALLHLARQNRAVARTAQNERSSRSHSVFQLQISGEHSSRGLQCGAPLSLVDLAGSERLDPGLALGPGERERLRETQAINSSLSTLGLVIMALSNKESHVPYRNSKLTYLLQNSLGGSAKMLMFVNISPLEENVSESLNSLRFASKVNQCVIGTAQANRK
Chain of KIFC1 (P68363 whole entry partner, species assumed): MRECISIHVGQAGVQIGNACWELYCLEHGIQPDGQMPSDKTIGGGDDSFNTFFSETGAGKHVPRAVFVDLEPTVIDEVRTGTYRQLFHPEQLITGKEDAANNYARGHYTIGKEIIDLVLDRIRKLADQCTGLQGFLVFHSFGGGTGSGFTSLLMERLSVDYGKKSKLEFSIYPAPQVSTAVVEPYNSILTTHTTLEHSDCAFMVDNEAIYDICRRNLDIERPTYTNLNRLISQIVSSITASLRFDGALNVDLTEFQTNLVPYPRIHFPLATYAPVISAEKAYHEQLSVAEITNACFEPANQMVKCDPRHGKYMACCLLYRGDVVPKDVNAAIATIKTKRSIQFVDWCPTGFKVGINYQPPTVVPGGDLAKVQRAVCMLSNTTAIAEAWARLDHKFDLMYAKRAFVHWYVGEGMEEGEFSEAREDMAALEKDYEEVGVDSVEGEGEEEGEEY
Chain of KIFC1 (Q9BVA1 whole entry partner, species assumed): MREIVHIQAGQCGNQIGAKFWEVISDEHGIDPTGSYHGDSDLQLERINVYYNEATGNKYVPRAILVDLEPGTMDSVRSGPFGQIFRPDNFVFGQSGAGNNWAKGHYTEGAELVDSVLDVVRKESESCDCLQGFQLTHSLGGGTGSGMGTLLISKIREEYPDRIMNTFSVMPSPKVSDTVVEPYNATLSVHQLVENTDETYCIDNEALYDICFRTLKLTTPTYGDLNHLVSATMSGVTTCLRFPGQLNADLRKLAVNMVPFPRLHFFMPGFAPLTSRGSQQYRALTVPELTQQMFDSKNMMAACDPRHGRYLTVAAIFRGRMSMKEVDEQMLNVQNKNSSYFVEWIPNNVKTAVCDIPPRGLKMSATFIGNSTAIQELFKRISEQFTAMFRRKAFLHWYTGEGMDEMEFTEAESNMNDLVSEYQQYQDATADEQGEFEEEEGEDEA

SMILES: CN1c2c(nc(N)[nH]c2=O)NC[C@@H]1CNc1ccc(C(=O)N[C@@H](CCC(=O)O)C(=O)O)cc1 [6S 5-methyltetrahydrofolate]
Kd (FR1): 0.055 µM | Kd (FR2): 0.001 µM

SMILES: CCCc1cc(C(=O)N[C@H](Cc2ccc(-c3cccc(OC(F)(F)F)c3)nc2)C(=O)N[C@@H]2CCNC2)sc1C [AZ82]
Ki (KIFC1): 0.043 µM | centrosome declustering [1]: causes centrosome declustering

stability in SGF [2]: stable | decrease in concentration in SIF [3]: ~35% | blood plasma ratio at 50 μM [4]: < 1.5 | half-life ([5]; iv, 3 mg/kg, PhosE 3 mg/kg iv): < 1 h | AUC(0-t) ([5]; PhosE 3 mg/kg iv): 490 ng·h/mL | MRT last ([5]; PhosE 3 mg/kg iv): 0.79 h | clearance ([5]; PhosE 3 mg/kg iv): 102 mL/min/kg | Cmax ([5]; PhosE 3 mg/kg iv): 1250 ng/mL | Vd ([5]; PhosE 3 mg/kg iv, read-out: Vss): 4.82 L/kg | bioavailability ([5]; PhosE 60 mg/kg po vs 3 mg/kg iv, read-out: F (oral bioavailability)): 19% | AUC(0-t) ([5]; PhosE 60 mg/kg po): 1890 ng·h/mL | Tmax ([5]; PhosE 60 mg/kg po): 1 h | Cmax ([5]; PhosE 60 mg/kg po): 1140 ng/mL | IC50 (CYP1A2): > 100 µM | IC50 (CYP2A6): > 100 µM | IC50 (CYP2B6): > 100 µM | IC50 (CYP2C8): > 100 µM | IC50 (CYP2C9): > 100 µM | IC50 (CYP2C19): > 100 µM | IC50 (CYP2D6): > 100 µM | IC50 (CYP2E1): > 100 µM | IC50 (CYP3A4): > 100 µM | IC50 (CYP3A4; 3A4-mida: CYP3A4 substrate midazolam, human liver microsomes): > 100 µM | IC50 (CYP3A4; 3A4-testo: CYP3A4 substrate testosterone, human liver microsomes): > 100 µM
SMILES: NCCOP(=O)(O)O [PhosE, phosphoethanolamine]
inhibition of PC-3 cell proliferation (PC-3 cells [6]): only showed limited inhibition of PC-3 cell proliferation up to 0.5 mg/ml | decrease in colony numbers compared to control cells (PC-3 cells [7]): ineffective in decreasing colony numbers | increase in intracellular PhosE levels compared to control cells (PC-3 cells [8]): ~15 fold

SMILES: Nc1nc2c(c(=O)[nH]1)N(C=O)C(CNc1ccc(C(=O)N[C@@H](CCC(=O)O)C(=O)O)cc1)CN2 (stereo partly drawn) [leucovorin, 6S 5-formyltetrahydrofolate]
Kd (FR1): 0.8 µM | Kd (FR2): 0.007 µM
